Data taken from patent publication US7425433B2, “Carboxylic acid reductase polypeptide, nucleotide sequence encoding same and methods of use” (priority 2003, dated 2008).
Where two headings read alike, the source gives them in different places.

Assays:
[1] = system: E. coli BL21-CodonPlus(DE3)-RP carrying pHAT-305; test: In vivo whole cell reactions; format: cell-based; conditions: IPTG-induced cultures, 1 mg/ml substrate acid
Description: In vivo whole cell reactions were typically conducted with 100 ml cultures of E. coli BL21-CodonPlus®(DE3)-RP carrying pHAT-305. Cultures were induced by 1 mM IPTG for 4 hrs before receiving 1 mg/ml of benzoic acid, vanillic acid, or ferulic acid.
Samples of approximately 2 mL were removed at various time intervals, sample pH was adjusted to pH 2.0 with 6N HCl, and samples were extracted with 1 ml ethyl acetate, and centrifuged for 2 min at 1,000×g. Organic phases were removed and used to spot silica gel GF254 TLC plates for analysis, and comparison with authentic standards of benzaldehyde, vanillin and coniferaldehyde. For metabolite isolation, reactions were stopped by adjustment of mixtures to pH 2.0 with 6N HCl, and extracted three times with half-volumes of ethyl acetate. After removal of solvent by rotary evaporation, reduction products were purified by preparative TLC for analysis and comparison with authentic standards.

[2] = molecular target: T1, carboxylic acid reductase (CAR) (Nocardia iowensis, UniProt Q6RKB1, L218S); format: biochemical, Nocardia sp. NRRL 5646; conditions: for Km: cofactors of purified HAT-CAR, Cleland's kinetics program; for Specific activity: 25° C.
T1 construct: made in house; host or cells: E. coli BL21-CodonPlus(DE3)-RP carrying pHAT-305
Description: Enzyme assay. The standard reaction mixture contained 1 mM ATP, 0.15 mM NADPH, 5 mM sodium benzoate, 10 mM MgCl2 and enzyme in 0.05 M Tris buffer (pH 7.5) containing 1 mM EDTA, 1 mM DTT and 10% glycerol (vol/vol), in a final volume of 1.4 ml. The reference cuvette contained all components except benzoate. Reactions were initiated by adding enzyme, and were monitored by recording the absorption decrease at 340 nm at 25° C. with a Shimadzu UV-2010PC scanning spectrophotometer. One unit of the enzyme was defined as the amount of enzyme that catalyzed the reduction of 1 µmol of benzoate to benzaldehyde.min^−1 under standard assay condition. Protein concentrations were measured by the Bradford protein microassay (4) with bovine serum albumin as the standard.

| Molecule | in vivo transformation by whole cells [1] | Km [2] | also measured |
| --- | --- | --- | --- |
| COc1cc(C=O)ccc1O [vanillin] | converted to their corresponding alcohols | – | – |
| O=C(O)c1ccccc1 [benzoate, benzoic acid] | quickly converted to benzyl alcohol | – | – |
| NC(=O)C1=CN([C@@H]2O[C@H](COP(=O)(O)OP(=O)(O)OC[C@H]3O[C@@H](n4cnc5c(N)ncnc54)[C@H](OP(=O)(O)O)[C@@H]3O)[C@@H](O)[C@H]2O)C=CC1 [NADPH] | – | 57 ± 3.6 µM | – |
| Nc1ncnc2c1ncn2[C@@H]1O[C@H](COP(=O)(O)OP(=O)(O)OP(=O)(O)O)[C@@H](O)[C@H]1O [ATP] | – | 69 ± 6.6 µM | – |
| COc1cc(/C=C/C=O)ccc1O [coniferyl aldehyde] | converted to their corresponding alcohols | – | – |
| HAT-CAR: HAT-tagged recombinant Nocardia carboxylic acid reductase fusion protein expressed in E. coli from pHAT-305 (protein, left off: small tags and cut ends) AVDSPDERLQRRIAQLFAEDEQVKAARPLEAVSAAVSAPGMRLAQIAATVMAGYADRPAAGQRAFELNTDDATGRTSLRLLPRFETITYRELWQRVGEVAAAWHHDPENPLRAGDFVALLGFTSIDYATLDLADIHLGAVTVPLQASAAVSQLIAILTETSPRLLASTPEHLDAAVECLLAGTTPERLVVFDYHPEDDDQRAAFESARRRLADAGSSVIVETLDAVRARGRDLPAAPLFVPDTDDDPLALLIYTSGSTGTPKGAMYTNRLAATMWQGNSMLQGNSQRVGINLNYMPMSHIAGRISLFGVLARGGTAYFAAKSDMSTLFEDIGLVRPTEIFFVPRVCDMVFQRYQSELDRRSVAGADLDTLDREVKADLRQNYLGGRFLVAVVGSAPLAAEMKTFMESVLDLPLHDGYGSTEAGASVLLDNQIQRPPVLDYKLVDVPELGYFRTDRPHPRGELLLKAETTIPGYYKRPEVTAEIFDEDGFYKTGDIVAELEHDRLVYVDRRNNVLKLSQGEFVTVAHLEAVFASSPLIRQIFIYGSSERSYLLAVIVPTDDALRGRDTATLKSALAESIQRIAKDANLQPYEIPRDFLIETEPFTIANGLLSGIAKLLRPNLKERYGAQLEQMYTDLATGQADELLALRREAADLPVLETVSRAAKAMLGVASADMRPDAHFTDLGGDSLSALSFSNLLHEIFGVEVPVGVVVSPANELRDLANYIEAERNSGAKRPTFTSVHGGGSEIRAADLTLDKFIDARTLAAADSIPHAPVPAQTVLLTGANGYLGRFLCLEWLERLDKTGGTLICVVRGSDAAAARKRLDSAFDSGDPGLLEHYQQLAARTLEVLAGDIGDPNLGLDDATWQRLAETVDLIVHPAALVNHVLPYTQLFGPNVVGTAEIVRLAITARRKPVTYLSTVGVADQVDPAEYQEDSDVREMSAVRVVRESYANGYGNSKWAGEVLLREAHDLCGLPVAVFRSDMILAHSRYAGQLNVQDVFTRLILSLVATGIAPYSFYRTDADGNRQRAHYDGLPADFTAAAITALGIQATEGFRTYDVLNPYDDGISLDEFVDWLVESGHPIQRITDYSDWFHRFETAIRALPEKQRQASVLPLLDAYRNPCPAVRGAILPAKEFQAAVQTAKIGPEQDIPHLSAPLIDKYVSDLELLQLL | – | – | Specific activity ([2]; purification step: Crude extract): 0.009 U/mg; Specific activity ([2]; purification step: DEAE Sepharose): 0.09 U/mg; Specific activity ([2]; purification step: Talon Matrix): 0.066 U/mg; specific CAR activity ([2]; purified HAT-CAR): 0.11 μmol.min^−1.mg-^−1 protein; Vmax ([2]; purified recombinant HAT-CAR): 0.135±0.004 μmol.min^−1.mg^−1 protein |
